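Cultured in 96-well plates, cells were exposed to test compound for 48 hours across five concentrations. GI50: concentration for 50% inhibition of growth.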 The source made the active and inactive calls. No stated cut-off is given here; in the data, active = GI50 up to about 1.1 µM and inactive = higher.
How the values were obtained:
Assay in all cases: growth of human tumour cells (NCI), 48 h
[1] = system: A498
[2] = system: A549
[3] = system: ACHN
[4] = system: HOP-62
[5] = system: K562
[6] = system: LOX IMVI
[7] = system: MDA-MB-435
[8] = system: NCI/ADR-RES
[9] = system: OVCAR-3
[10] = system: SK-OV-3
[11] = system: SN12C
[12] = system: SNB-75
[13] = system: SW-620
[14] = system: T47D
[15] = system: U-251
[16] = system: CCRF-CEM
[17] = system: HL-60
[18] = system: NCI-H522
[19] = system: SF-539

SMILES	GI50 [1]	GI50 [2]	GI50 [3]	GI50 [4]	GI50 [5]	GI50 [6]	GI50 [7]	GI50 [8]	GI50 [9]	GI50 [10]	GI50 [11]	GI50 [12]	GI50 [13]	GI50 [14]	GI50 [15]	GI50 [16]	GI50 [17]	GI50 [18]	GI50 [19]
CCOC(=O)c1cc(=O)oc2c1N(C)c1ncccc1N2	> 100 µM (inactive)	> 100 µM (inactive)	86.9 µM (inactive)	> 100 µM (inactive)	> 100 µM (inactive)	> 100 µM (inactive)	> 100 µM (inactive)	> 100 µM (inactive)	> 100 µM (inactive)	> 100 µM (inactive)	> 100 µM (inactive)	> 100 µM (inactive)	> 100 µM (inactive)	> 100 µM (inactive)	> 100 µM (inactive)	–	–	–	–
Cc1cc(C)nc(NS(=O)(=O)c2ccc(Nc3nnc(/C=C/c4c(O)ccc5ccccc45)c(=O)n3N)cc2)n1	–	30.7 µM (inactive)	23 µM (inactive)	37.4 µM (inactive)	27.6 µM (inactive)	–	20.1 µM (inactive)	20 µM (inactive)	13.2 µM (inactive)	51.4 µM (inactive)	22.3 µM (inactive)	17.3 µM (inactive)	43.9 µM (inactive)	11.1 µM (inactive)	–	12 µM (inactive)	22.1 µM (inactive)	–	–
Cc1ccc(-n2cc(-c3ccc(Cl)cc3)c3c2N=CN2N=C(c4cccs4)NC32)cc1 (stereo not given)	14.7 µM (inactive)	21.9 µM (inactive)	5.07 µM (inactive)	15.7 µM (inactive)	11.7 µM (inactive)	15.7 µM (inactive)	38.7 µM (inactive)	9.68 µM (inactive)	9.73 µM (inactive)	14.9 µM (inactive)	10.1 µM (inactive)	8.38 µM (inactive)	14.4 µM (inactive)	–	4.81 µM (inactive)	11.2 µM (inactive)	19.1 µM (inactive)	21.6 µM (inactive)	16.2 µM (inactive)
Clc1ccc(-c2nc3ccc4ccccc4c3c3c2CCCC3)cc1	> 100 µM (inactive)	63.4 µM (inactive)	–	> 100 µM (inactive)	> 100 µM (inactive)	–	> 100 µM (inactive)	> 100 µM (inactive)	> 100 µM (inactive)	> 100 µM (inactive)	–	> 100 µM (inactive)	> 100 µM (inactive)	–	94.4 µM (inactive)	68.4 µM (inactive)	–	> 100 µM (inactive)	> 100 µM (inactive)
O=C(O)c1cc2ccccc2c(/N=N\c2cc(C(F)(F)F)ccc2Cl)c1O	–	27.9 µM (inactive)	46.5 µM (inactive)	38.1 µM (inactive)	27 µM (inactive)	–	> 100 µM (inactive)	76.2 µM (inactive)	22.5 µM (inactive)	> 100 µM (inactive)	44.9 µM (inactive)	0.0169 µM (active)	> 100 µM (inactive)	48.8 µM (inactive)	27.5 µM (inactive)	33.6 µM (inactive)	21.8 µM (inactive)	> 100 µM (inactive)	99.3 µM (inactive)
CN(C)c1ccc(-c2c(C#N)c(S)n(NS(=O)(=O)c3ccccc3)c(=O)c2C#N)cc1	22.3 µM (inactive)	37.9 µM (inactive)	26.8 µM (inactive)	–	30.7 µM (inactive)	22.1 µM (inactive)	21.5 µM (inactive)	19.3 µM (inactive)	36.6 µM (inactive)	59.6 µM (inactive)	20.2 µM (inactive)	25.4 µM (inactive)	38.9 µM (inactive)	–	24.1 µM (inactive)	5.93 µM (inactive)	15.7 µM (inactive)	14.7 µM (inactive)	18.8 µM (inactive)
Cc1ccc(C)c2c1CC(Cc1ccccc1C(=O)O)C2=O (stereo not given)	–	> 100 µM (inactive)	> 100 µM (inactive)	> 100 µM (inactive)	> 100 µM (inactive)	> 100 µM (inactive)	> 100 µM (inactive)	> 100 µM (inactive)	> 100 µM (inactive)	> 100 µM (inactive)	> 100 µM (inactive)	> 100 µM (inactive)	> 100 µM (inactive)	> 100 µM (inactive)	> 100 µM (inactive)	> 100 µM (inactive)	> 100 µM (inactive)	> 100 µM (inactive)	> 100 µM (inactive)
O=C(/N=N/c1ccccc1Br)NNc1ccccc1Br	58.7 µM (inactive)	64.9 µM (inactive)	46.1 µM (inactive)	> 100 µM (inactive)	27.3 µM (inactive)	91.4 µM (inactive)	84.5 µM (inactive)	–	86.3 µM (inactive)	–	77.6 µM (inactive)	> 100 µM (inactive)	67.1 µM (inactive)	13.7 µM (inactive)	60.8 µM (inactive)	31 µM (inactive)	23.6 µM (inactive)	40.6 µM (inactive)	–
O=C1c2scc(-c3ccccc3)c2-n2cccc21	1.72 µM (inactive)	18.5 µM (inactive)	> 100 µM (inactive)	16.3 µM (inactive)	–	14.4 µM (inactive)	14.5 µM (inactive)	17.5 µM (inactive)	16.3 µM (inactive)	19.3 µM (inactive)	29.8 µM (inactive)	3.46 µM (inactive)	16.3 µM (inactive)	17.7 µM (inactive)	14.1 µM (inactive)	19.7 µM (inactive)	–	11.4 µM (inactive)	–
